Assay results: PMC8406298, “Discovery of Fungus-Specific Targets and Inhibitors Using Chemical Phenotyping of Pathogenic Spore Germination” (mBio, 2021)

How the values were obtained:
Cryptococcus spores [1] = experiment: Quantitative germination assay (QGA), automated microscopy of spore germination; type: cell-based, Cryptococcus neoformans serotype D (deneoformans); settings: for germination inhibition phenotype (chemical phenotype) in QGA: at phenotypic concentration
Description: In this automated microscopy-based assay, germination progression of spores is monitored as a function of changes in cell morphology over time (spores are small and oval; yeast are large and circular). Individual spores in a population (∼1 × 10^4 per sample) are measured to determine size (area) and shape (aspect ratio) from the onset of germination, and the data are collected for each cell over the time of germination (Fig. 1A).
Germination assays were modified from those described by Barkal et al. to introduce automation, increase throughput, and refine assay consistency ([12]). Briefly, 384-well plates (Thermo Scientific 142762) were loaded with 10^5 spores per well, and at 0 h, synthetic medium plus 2% dextrose (SD medium) containing the compounds of interest was added to the sample (final volume of 40 μl). All compounds were tested initially at 80 μM; however, concentrations were changed on a case-by-case basis for subsequent experiments. All assays and controls were performed with a final concentration of 0.8% DMSO (the compound solvent) unless specified otherwise. Spores were germinated at 30°C in a humidified chamber, and the same ∼5 × 10^3 cells were monitored every 2 h for 16 h. Imaging was performed on a Ti2 Nikon microscope, and each condition was visualized in a minimum of two individual wells with three fields of view acquired from each well. All images were analyzed as described previously based on cell shape and size using ImageJ. The population ratios of spores, intermediates, and yeast were determined. Error bars in plots are based on the variation among all fields of view acquired. Level of germination was determined by quantifying the decrease in the proportion of spores in a population, and rates were quantified by determining the change in this proportion over time. For all two-dimensional histograms, the x axis represents area from 0 μm^2 to 25 μm^2, and the y axis represents the aspect ratio from 0.4 to 1.
Cycloheximide (0.078 μM to 80 μM) (Dot Scientific, Inc. DSC81040-1), G418 (1.6 mM) (Fisher Scientific AAJ6267106), and puromycin (20 mM) (Dot Scientific, Inc. DSP33020-0.025) were tested with no DMSO (all were water soluble), whereas anisomycin (62.5 μM) (Sigma-Aldrich A9789-5MG) was tested in 2.5% DMSO.
Furcarbanil (80 μM) (Sigma-Aldrich T313122), rotenone (10 μM) (Fisher Scientific 501687383), and antimycin A (2.5 μM) (Santa Cruz Biotechnology, Inc. sc-202467A) were all tested in 0.8% DMSO, and TTFA (200 μM) (Sigma-Aldrich 88300-5G) was tested in 3% DMSO.

[2] = system: normal human dermal fibroblasts (NHDF) cells; experiment: Fibroblast cytotoxicity (CellTiter-Glo); type: cell-based; settings: at concentrations as high as 80 μM; dose-response 0.5 to 80 μM
Outline: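 Normal human dermal fibroblasts, 1 × 10^3 per well, exposed to compounds at 10 μM for 72 h at 37°C. Viability read as ATP-dependent CellTiter-Glo luminescence. Dose-response runs titrated compounds from 80 μM to 0.5 μM in duplicate.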

[3] = system: Cryptococcus yeast (JEC21); experiment: Oxygen consumption rate experiments (Seahorse XFe96); type: cell-based, Cryptococcus neoformans serotype D (deneoformans); settings: 10 μM inhibitor injected after 20 mM glucose
Description: Oxygen consumption experiments were performed on a Seahorse Biosciences XFe96 extracellular flux analyzer, and the assays were modified from those described by Lev et al. 2020 ([28]). Briefly, cartridges were hydrated overnight in Agilent Seahorse XF calibrant. JEC21 yeast were grown overnight in YPD, washed with double-distilled water (ddH2O) and resuspended to an OD600 of 0.08 in Seahorse XF Dulbecco’s modified Eagle medium (DMEM) at pH 7.4 (Agilent 103575-100). Cells (180 μl) were loaded into each well with the exception of blank wells, which were filled with XF DMEM. Each injection solution was 10× the final volume in XF DMEM. The assay was carried out at 30°C with injections occurring every 60 min. OCR was read every 6 min during each hour interval, with 3 min of mixing and 3 min of measuring. The following final concentrations were achieved after each injection: (a) 20 mM dextrose, (b) 10 μM chosen inhibitor (furcarbanil, B2, or B5) and 1% DMSO, (c) 50 μM rotenone, 50 μM antimycin A, and 1% DMSO, and (d) 100 mM 2-deoxy-D-glucose (2-DG; Sigma-Aldrich D8375-1G). Each condition was tested in triplicates.

Candida albicans = system: Candida albicans; set-up: method as in PMID 16876761; settings: cited from earlier work
[4] = system: Cryptococcus spores harboring CNK01510-NL fusion; experiment: Nanoluciferase germination screen (HTS); type: cell-based, Cryptococcus neoformans serotype D (deneoformans)
Source text: To identify potential inhibitors of spore germination, a nanoluciferase (NL)-based high-throughput screening (HTS) assay was developed, and compounds from three libraries of structurally diverse, drug-like small molecules (LifeChem 1 to 3) were screened (see Fig. S1 in the supplemental material). For the assay, a previously identified protein (CNK01510) was fused to the nanoluciferase protein (Promega) and introduced into its endogenous locus in the Cryptococcus genome ([14]). Strains harboring the integrated NL protein fusion were crossed under sexual development conditions to produce spores. Spores from the NL strains yielded very little NL enzyme activity; however, yeast from those strains produced a robust NL signal. Most importantly, the amount of NL signal correlated with the germination state. As spores germinated into yeast, the levels of NL signal increased, resulting in a robust signal over baseline at the end of germination (∼14-fold) (Fig. S1). […] Secondary screens were performed on these hits to determine effects on yeast replication, cytotoxicity against mammalian fibroblasts, and direct inhibition of the NL enzyme (see Data Set S1).
Screening of the LifeChem libraries (Life Chemicals) was carried out with the assistance of the University of Wisconsin—Madison (UW-Madison) small-molecule screening facility. All NL screening was performed as described previously ([7]). […]

Cryptococcus spores [5] = system: Cryptococcus spores; set-up: method as in PMID 31570398; settings: previous study; cited from earlier work

Cc1nc(NCc2ccccc2)c2ccsc2n1 [A5]
inhibition at 5 µM (Cryptococcus spores [1]; Cryptococcus): > 80% | cytotoxicity against fibroblasts [2]: < 20%

Cc1cc(C(=O)N(CCc2cccs2)C2CC2)c(C)o1 [B2]
inhibition at 5 µM (Cryptococcus spores [1]; Cryptococcus): > 75% | cytotoxicity against fibroblasts [2]: ≤ 25% | effect on oxygen consumption rate (OCR) [3]: substantial decrease in OCR that was not recovered from

Cc1cc(C(=O)N2CCC(Oc3ncccc3Cl)CC2)c(C)o1 [B5]
effect on oxygen consumption rate (OCR) [3]: small decrease in OCR that was not recovered from

ClC1(Cl)CC1Cn1cnc2ccccc21 (stereo not shown) [PubChem CID 2936975]
phenotypic concentration (concentration showing the germination phenotype in QGA) (Cryptococcus spores [1]): 40 µM | germination inhibition phenotype (chemical phenotype) in QGA (Cryptococcus spores [1]): slow down

CCn1c(CSc2ccccc2)nc2ccccc21 [PubChem CID 2992099]
phenotypic concentration (concentration showing the germination phenotype in QGA) (Cryptococcus spores [1]): 80 µM | germination inhibition phenotype (chemical phenotype) in QGA (Cryptococcus spores [1]): slow down

COc1cccc2cc(-c3csc(NN=C4CCN(C)CC4)n3)c(=O)oc12 [PubChem CID 4913014]
phenotypic concentration (concentration showing the germination phenotype in QGA) (Cryptococcus spores [1]): 20 µM | germination inhibition phenotype (chemical phenotype) in QGA (Cryptococcus spores [1]): asynchrony

COc1ccc(/C=C/c2nc3ccccc3[nH]2)cc1 [PubChem CID 5769808]
phenotypic concentration (concentration showing the germination phenotype in QGA) (Cryptococcus spores [1]): 20 µM | germination inhibition phenotype (chemical phenotype) in QGA (Cryptococcus spores [1]): slow down

C/C=C/c1ccc(OCCn2cnc3ccccc32)c(OC)c1 [PubChem CID 5769972]
phenotypic concentration (concentration showing the germination phenotype in QGA) (Cryptococcus spores [1]): 10 µM | germination inhibition phenotype (chemical phenotype) in QGA (Cryptococcus spores [1]): slow down

O=C(Nc1nc2c(Br)cccc2s1)C1CC1 [PubChem CID 7202929]
phenotypic concentration (concentration showing the germination phenotype in QGA) (Cryptococcus spores [1]): 10 µM | germination inhibition phenotype (chemical phenotype) in QGA (Cryptococcus spores [1]): asynchrony

Cc1ccc(-c2nnc(Cn3cnc4ccccc43)o2)cc1 [PubChem CID 16456942]
phenotypic concentration (concentration showing the germination phenotype in QGA) (Cryptococcus spores [1]): 5 µM | germination inhibition phenotype (chemical phenotype) in QGA (Cryptococcus spores [1]): slow down

O=C(NC1CCCC1)c1csc(Nc2ccccc2)n1 [PubChem CID 30860168]
phenotypic concentration (concentration showing the germination phenotype in QGA) (Cryptococcus spores [1]): 10 µM | germination inhibition phenotype (chemical phenotype) in QGA (Cryptococcus spores [1]): asynchrony

CN(C)CCN(C(=O)c1c[nH]c2ccccc12)c1nc2ccc(OC(F)(F)F)cc2s1.Cl [PubChem CID 71782913]
phenotypic concentration (concentration showing the germination phenotype in QGA) (Cryptococcus spores [1]): 20 µM | germination inhibition phenotype (chemical phenotype) in QGA (Cryptococcus spores [1]): asynchrony

O=C(c1cc(-c2ccco2)on1)N1CCC(c2cccs2)CC1 [PubChem CID 71786870]
phenotypic concentration (concentration showing the germination phenotype in QGA) (Cryptococcus spores [1]): 40 µM | germination inhibition phenotype (chemical phenotype) in QGA (Cryptococcus spores [1]): asynchrony

O=C(CSCc1ccccc1)N1CCC(c2cccs2)CC1 [PubChem CID 71786876]
phenotypic concentration (concentration showing the germination phenotype in QGA) (Cryptococcus spores [1]): 80 µM | germination inhibition phenotype (chemical phenotype) in QGA (Cryptococcus spores [1]): asynchrony

O=C(CCSc1ccccc1)N1CCC(c2cccs2)CC1 [PubChem CID 71786877]
phenotypic concentration (concentration showing the germination phenotype in QGA) (Cryptococcus spores [1]): 80 µM | germination inhibition phenotype (chemical phenotype) in QGA (Cryptococcus spores [1]): asynchrony

O=C(CSCc1ccccc1)N1CCC(c2ccsc2)CC1 [PubChem CID 71786985]
phenotypic concentration (concentration showing the germination phenotype in QGA) (Cryptococcus spores [1]): 80 µM | germination inhibition phenotype (chemical phenotype) in QGA (Cryptococcus spores [1]): asynchrony

O=C(CCc1ccccc1Br)N1CCC(c2cccs2)CC1 [PubChem CID 71807060]
phenotypic concentration (concentration showing the germination phenotype in QGA) (Cryptococcus spores [1]): 40 µM | germination inhibition phenotype (chemical phenotype) in QGA (Cryptococcus spores [1]): asynchrony

O=C(CCc1ccccc1Br)N1CCC(c2ccsc2)CC1 [PubChem CID 71807075]
phenotypic concentration (concentration showing the germination phenotype in QGA) (Cryptococcus spores [1]): 40 µM | germination inhibition phenotype (chemical phenotype) in QGA (Cryptococcus spores [1]): asynchrony

O=C(NCc1ccnc(-c2cccs2)c1)c1nc2ccccc2s1 [PubChem CID 91630328]
phenotypic concentration (concentration showing the germination phenotype in QGA) (Cryptococcus spores [1]): 40 µM | germination inhibition phenotype (chemical phenotype) in QGA (Cryptococcus spores [1]): asynchrony

O=C(CC(=O)C(F)(F)F)c1cccs1 [TTFA, thenoyltrifluoroacetone, reference compound]
phenotypic concentration (concentration showing the germination phenotype in QGA) (Cryptococcus spores [1]): 200 µM | germination inhibition phenotype (chemical phenotype) in QGA (Cryptococcus spores [1]): asynchrony | effect on hyphal formation (Candida albicans): prevent hyphal formation

COc1ccc(C[C@H]2NC[C@H](O)[C@H]2OC(C)=O)cc1 [anisomycin, reference compound]
germination inhibition phenotype (chemical phenotype) in QGA (Cryptococcus spores [1]): slow-down

CCCCCC[C@H]1C(=O)O[C@H](C)[C@H](NC(=O)c2cccc(NC=O)c2O)C(=O)O[C@@H](C)[C@@H]1OC(=O)CC(C)C [antimycin A, reference compound]
phenotypic concentration (concentration showing the germination phenotype in QGA) (Cryptococcus spores [1]): 2.5 µM | germination inhibition phenotype (chemical phenotype) in QGA (Cryptococcus spores [1]): asynchrony

C[C@@H]1C[C@@H]([C@H](O)CC2CC(=O)NC(=O)C2)C(=O)[C@@H](C)C1 [cycloheximide, reference compound]
inhibition of germination (changes in size or shape) (Cryptococcus spores [1]; 10 µM): full inhibition of germination | IC50 (Cryptococcus spores [1]; Cryptococcus, 16 h, read-out: 50% inhibitory concentration (IC50) of spore germination): 1700 nM | germination inhibition phenotype (chemical phenotype) in QGA (Cryptococcus spores [1]): slow-down | NL signal in germination screen [4]: low levels of NL signal

CCN(CC)C(=S)SSC(=S)N(CC)CC [disulfiram]
germination inhibition phenotype in QGA (Cryptococcus spores [5]): slow-end

Cc1cc(C(=O)Nc2ccccc2)c(C)o1 [furcarbanil, reference compound]
phenotypic concentration (concentration showing the germination phenotype in QGA) (Cryptococcus spores [1]): 80 µM | germination inhibition phenotype (chemical phenotype) in QGA (Cryptococcus spores [1]): asynchrony | effect on oxygen consumption rate (OCR) [3]: initial substantial decrease in OCR followed by recovery

COc1ccc(C[C@H](N)C(=O)N[C@H]2[C@@H](O)[C@H](n3cnc4c(N(C)C)ncnc43)O[C@@H]2CO)cc1 [puromycin, reference compound]
germination inhibition phenotype (chemical phenotype) in QGA (Cryptococcus spores [1]): slow-down

C=C(C)[C@H]1Cc2c(ccc3c2O[C@@H]2COc4cc(OC)c(OC)cc4[C@@H]2C3=O)O1 [rotenone, reference compound]
phenotypic concentration (concentration showing the germination phenotype in QGA) (Cryptococcus spores [1]): 10 µM | germination inhibition phenotype (chemical phenotype) in QGA (Cryptococcus spores [1]): asynchrony
